These molecules were tested against T1, human 11β-HSD1 (Homo sapiens, UniProt P28845) (assay: Enzymatic 11beta-HSD1 test (SPA-based detection)). Conditions: human 11β-HSD1 microsome fraction, [1,2-3H]-cortisone, NADPH, 37° C. 1 hour.
T1 construct: host or cells: microsome fraction
Type: biochemical
Outline: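 Human 11β-HSD1 microsomes (0.2 µg protein) converted [1,2-3H]-cortisone ([…]) for 1 h at 37 °C. The reaction buffer was HEPES/KCl/NaCl/MgCl2 with 0.25 mM NADPH, with compounds added in DMSO. The reaction was stopped with SPA beads, anti-cortisol monoclonal antibody and 0.01 mM SSR110887; after 1 h at room temperature, [3H]-cortisol was scintillation-counted.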

T1 sequence (P28845 whole entry): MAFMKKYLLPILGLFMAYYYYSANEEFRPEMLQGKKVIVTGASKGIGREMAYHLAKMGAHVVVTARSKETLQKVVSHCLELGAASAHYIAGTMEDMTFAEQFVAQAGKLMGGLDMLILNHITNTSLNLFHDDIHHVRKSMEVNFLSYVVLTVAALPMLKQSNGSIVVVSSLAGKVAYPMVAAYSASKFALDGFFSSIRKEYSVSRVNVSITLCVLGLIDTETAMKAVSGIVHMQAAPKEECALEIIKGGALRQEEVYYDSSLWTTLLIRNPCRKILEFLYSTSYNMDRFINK

Structure (SMILES)	IC50
CC1(C)OC(N[C@@H](CCO)c2ccccc2F)=NS(=O)(=O)C1c1ccc(-c2ccc(C#N)cc2)cc1 (stereo partly shown) [Example 95]	6 nM
CC1(C)OC(N[C@@H](CCO)c2cccc(F)c2Cl)=NS(=O)(=O)C1c1ccc(-c2ccccc2)cc1 (stereo partly drawn) [Example 96, (S)-3-(5-Biphenyl-4-yl-6,6-dimethyl-4,4-dioxo-5,6-dihydro-4H-4lambda6-[1,4,3]oxathiazin-2-ylamino)-3-(2-chloro-3-fluorophenyl)-propan-1-ol]	10 nM
CC1(C)OC(N[C@@H](CCO)c2ccc(F)cc2F)=NS(=O)(=O)C1c1ccc(-c2ccccc2)cc1 (stereo partly drawn) [Example 97, (S)-3-(5-Biphenyl-4-yl-6,6-dimethyl-4,4-dioxo-5,6-dihydro-4H-4lambda6-[1,4,3]oxathiazin-2-ylamino)-3-(2,4-difluorophenyl)-propan-1-ol]	16 nM
CC1(C)OC(N[C@@H](CCO)c2cc(F)ccc2F)=NS(=O)(=O)C1c1ccc(-c2ccccc2)cc1 (stereo partly drawn) [Example 98, (S)-3-(5-Biphenyl-4-yl-6,6-dimethyl-4,4-dioxo-5,6-dihydro-4H-4lambda6-[1,4,3]oxathiazin-2-ylamino)-3-(2,5-difluorophenyl)-propan-1-ol]	12 nM
CC1(C)OC(N[C@@H](CCO)c2cc(Cl)ccc2F)=NS(=O)(=O)C1c1ccc(-c2ccccc2)cc1 (stereo partly drawn) [Example 99, (S)-3-(5-Biphenyl-4-yl-6,6-dimethyl-4,4-dioxo-5,6-dihydro-4H-4lambda6-[1,4,3]oxathiazin-2-ylamino)-3-(5-chloro-2-fluorophenyl)-propan-1-ol]	25 nM
Cc1ccc(F)cc1[C@H](CCO)NC1=NS(=O)(=O)C(c2ccc(-c3ccccc3)cc2)C(C)(C)O1 (stereo partly drawn) [Example 100, (S)-3-(5-Biphenyl-4-yl-6,6-dimethyl-4,4-dioxo-5,6-dihydro-4H-4lambda6-[1,4,3]oxathiazin-2-ylamino)-3-(5-fluoro-2-methyl-phenyl)-propan-1-ol]	19 nM
CC1(C)OC(N[C@@H](CCO)c2ccccc2F)=NS(=O)(=O)C1c1ccc(-c2cscn2)cc1 (stereo partly drawn) [Example 101, (S)-3-[6,6-Dimethyl-4,4-dioxo-5-(4-thiazol-4-yl-phenyl)-5,6-dihydro-4H-4lambda6-[1,4,3]oxathiazin-2-ylamino]-3-(2-fluorophenyl)-propan-1-ol]	5 nM
CC1(C)OC(N[C@@H](CCO)c2ccccc2F)=NS(=O)(=O)C1c1ccc(C(F)(F)F)cc1 (stereo partly drawn) [Example 102, (S)-3-[6,6-Dimethyl-4,4-dioxo-5-(4-trifluormethyl-phenyl)-5,6-dihydro-4H-4lambda6-[1,4,3]oxathiazin-2-ylamino]-3-(2-fluorophenyl)-propan-1-ol]	6 nM
CN1CCC(c2ccc(C3C(C)(C)OC(N[C@@H](CCO)c4ccccc4F)=NS3(=O)=O)cc2)CC1 (stereo partly shown) [Example 103]	32 nM
CC1(C)OC(N[C@@H](CCO)c2ccccc2F)=NS(=O)(=O)C1c1ccc(C2CCN(CCO)CC2)cc1 (stereo partly shown) [Example 104]	28 nM
CC1(C)OC(N[C@@H](CCO)c2ccccc2F)=NS(=O)(=O)C1c1ccc(C2CCN(CC(F)F)CC2)cc1 (stereo partly shown) [Example 105]	8 nM
CC1(C)OC(N[C@@H](CCO)c2ccccc2F)=NS(=O)(=O)C1c1ccc(CCCN)cc1 (stereo partly shown) [Example 106, (5)-3-{5-[4-(3-Amino-propyl)-phenyl]-6,6-dimethyl-4,4-dioxo-5,6-dihydro-4H-4lambda6-[1,4,3]oxathiazin-2-ylamino}-3-(2-fluorophenyl)-propan-1-ol]	26 nM
CC1(C)OC(N[C@@H](CCO)c2ccccc2F)=NS(=O)(=O)C1c1ccc(N2CCOCC2)cc1 (stereo partly drawn) [Example 107, (S)-3-[6,6-Dimethyl-5-(4-morpholin-4-yl-phenyl)-4,4-dioxo-5,6-dihydro-4H-4lambda6-[1,4,3]oxathiazin-2-ylamino]-3-(2-fluorophenyl)-propan-1-ol]	33 nM
CN(C)CCCc1ccc(C2C(C)(C)OC(N[C@@H](CCO)c3ccccc3F)=NS2(=O)=O)cc1 (stereo partly drawn) [Example 108, (S)-3-{5-[4-(3-Dimethylamino-propyl)-phenyl]-6,6-dimethyl-4,4-dioxo-5,6-dihydro-4H-4lambda6-[1,4,3]oxathiazin-2-ylamino}-3-(2-fluorophenyl)-propan-1-ol]	42 nM
CN1CCN(c2ccc(C3C(C)(C)OC(N[C@@H](CCO)c4ccccc4F)=NS3(=O)=O)cc2)CC1 (stereo partly shown) [Example 109]	79 nM
CC1(C)OC(N[C@@H](CCO)c2ccccc2F)=NS(=O)(=O)C1c1ccc(CCCN2CCOCC2)cc1 (stereo partly shown) [Example 110]	27 nM

Structure (SMILES)	IC50
Cn1nccc1-c1ccc(C2C(C)(C)OC(N[C@@H](CCO)c3ccccc3F)=NS2(=O)=O)cc1 (stereo partly drawn) [Example 111, (S)-3-{6,6-Dimethyl-5-[4-(2-methyl-2H-pyrazol-yl)-phenyl]-4,4-dioxo-5,6-dihydro-4H-4lambda6-[1,4,3]oxathiazin-2-ylamino}-3-(2-fluorophenyl)-propan-1-ol]	7 nM
CN(C)C(=O)c1ccc(-c2ccc(C3C(C)(C)OC(N[C@@H](CCO)c4ccccc4F)=NS3(=O)=O)cc2)cc1 (stereo partly drawn) [Example 112, 4′-{2-[(S)-1-(2-fluorophenyl)-3-hydroxy-propylamino]-6,6-dimethyl-4,4-dioxo-5,6-dihydro-4H-4lambda6-[1,4,3]oxathiazin-5-yl}-biphenyl-4-carboxylic acid dimethylamide]	7 nM
CC1(C)OC(N[C@@H](CCO)c2ccccc2F)=NS(=O)(=O)C1c1ccc(-c2cccnc2)cc1 (stereo partly drawn) [Example 113, (S)-3-[6,6-Dimethyl-4,4-dioxo-5-(4-pyridin-3-yl-phenyl)-5,6-dihydro-4H-4lambda6-[1,4,3]oxathiazin-2-ylamino]-3-(2-fluorophenyl)-propan-1-ol]	4 nM
CN1CCN(c2ccc(-c3ccc(C4C(C)(C)OC(N[C@@H](CCO)c5ccccc5F)=NS4(=O)=O)cc3)cc2)CC1 (stereo partly shown) [Example 114]	8 nM
Cc1n[nH]cc1-c1ccc(C2C(C)(C)OC(N[C@@H](CCO)c3ccccc3F)=NS2(=O)=O)cc1 (stereo partly drawn) [Example 115, (S)-3-{6,6-Dimethyl-5-[4-(3-methyl-1H-pyrazol-yl)-phenyl]-4,4-dioxo-5,6-dihydro-4H-4lambda6-[1,4,3]oxathiazin-2-ylamino}-3-(2-fluorophenyl)-propan-1-ol]	5 nM
CN(CCCc1ccc(C2C(C)(C)OC(N[C@@H](CCO)c3ccccc3F)=NS2(=O)=O)cc1)CC(F)F (stereo partly drawn) [Example 116, (S)-3-[5-(4-{3-[(2,2-Difluoroethyl)-methyl-amino]-propyl}-phenyl)-6,6-dimethyl-4,4-dioxo-5,6-dihydro-4H-4lambda6-[1,4,3]oxathiazin-2-ylamino]-3-(2-fluorophenyl)-propan-1-ol]	5 nM
CNCCCc1ccc(C2C(C)(C)OC(N[C@@H](CCO)c3ccccc3F)=NS2(=O)=O)cc1 (stereo partly drawn) [Example 117, (S)-3-{6,6-Dimethyl-5-[4-(3-methylamino-propyl)-phenyl]-4,4-dioxo-5,6-dihydro-4H-4lambda6-[1,4,3]oxathiazin-2-ylamino}-3-(2-fluorophenyl)-propan-1-ol]	23 nM
CC1(C)OC(N[C@@H](CCO)c2ccccc2F)=NS(=O)(=O)C1c1ccc(-c2csc(N3CCOCC3)n2)cc1 (stereo partly drawn) [Example 118, (S)-3-{6,6-Dimethyl-5-[4-(2-morpholin-4-yl-thiazol-4-yl)-phenyl]-4,4-dioxo-5,6-dihydro-4H-4lambda6-[1,4,3]oxathiazin-2-ylamino}-3-(2-fluorophenyl)-propan-1-ol]	8 nM
CC1(C)OC(N[C@@H](CCO)c2ccccc2F)=NS(=O)(=O)C1c1ccc(-c2ccncc2)cc1 (stereo partly drawn) [Example 119, (S)-3-[6,6-Dimethyl-4,4-dioxo-5-(4-pyridin-4-yl-phenyl)-5,6-dihydro-4H-4lambda6-[1,4,3]oxathiazin-2-ylamino]-3-(2-fluorophenyl)-propan-1-ol]	6 nM
CC1(C)OC(N[C@@H](CCO)c2ccccc2F)=NS(=O)(=O)C1c1ccc(-c2ccc(C(N)=O)cc2)cc1 (stereo partly drawn) [Example 120, 4′-{2-[(S)-1-(2-fluorophenyl)-3-hydroxy-propylamino]-6,6-dimethyl-4,4-dioxo-5,6-dihydro-4H-4lambda6-[1,4,3]oxathiazin-5-yl}-biphenyl-4-carboxylic acid amide]	6 nM
CC1(C)OC(N[C@@H](CCO)c2ccccc2F)=NS(=O)(=O)C1c1ccc(-c2cn[nH]c2)cc1 (stereo partly drawn) [Example 121, (S)-3-{6,6-Dimethyl-4,4-dioxo-5-[4-(1H-pyrazol-4-yl)-phenyl]-5,6-dihydro-4H-4lambda6-[1,4,3]oxathiazin-2-ylamino}-3-(2-fluorophenyl)-propan-1-ol]	8 nM
CN(CCO)CCCc1ccc(C2C(C)(C)OC(N[C@@H](CCO)c3ccccc3F)=NS2(=O)=O)cc1 (stereo partly shown) [Example 122]	35 nM
CN(C)Cc1ccc(-c2ccc(C3C(C)(C)OC(N[C@@H](CCO)c4ccccc4F)=NS3(=O)=O)cc2)cc1 (stereo partly drawn) [Example 123, (S)-3-[5-(4′-Dimethylaminomethyl-biphenyl-4-yl)-6,6-dimethyl-4,4-dioxo-5,6-dihydro-4H-4lambda6-[1,4,3]oxathiazin-2-ylamino]-3-(2-fluorophenyl)-propan-1-ol]	13 nM
Cn1cc(-c2ccc(C3C(C)(C)OC(N[C@@H](CCO)c4ccccc4F)=NS3(=O)=O)cc2)cn1 (stereo partly drawn) [Example 124, (S)-3-{6,6-Dimethyl-5-[4-(1-methyl-1H-pyrazol-yl)-phenyl]-4,4-dioxo-5,6-dihydro-4H-4lambda6-[1,4,3]oxathiazin-2-ylamino}-3-(2-fluorophenyl)-propan-1-ol]	8 nM
CN1CCN(c2ncc(-c3ccc(C4C(C)(C)OC(N[C@@H](CCO)c5ccccc5F)=NS4(=O)=O)cc3)cn2)CC1 (stereo partly drawn) [Example 125, (S)-3-(6,6-Dimethyl-5-{4-[2-(4-methyl-piperazin-1-yl)-pyrimidin-5-yl]-phenyl}-4,4-dioxo-5,6-dihydro-4H-4lambda6-[1,4,3]oxathiazin-2-ylamino)-3-(2-fluorophenyl)-propan-1-ol]	4 nM
